The experiment addresses T1, DPD (Rattus norvegicus, UniProt O89000).
T1 construct: the obtained supernatant was used as a DPD enzyme solution or an OPRT enzyme solution; from tissue; host or cells: liver of 8-week old SD rat; 105,000 g supernatant of homogenate
T1 sequence (O89000 1-1025): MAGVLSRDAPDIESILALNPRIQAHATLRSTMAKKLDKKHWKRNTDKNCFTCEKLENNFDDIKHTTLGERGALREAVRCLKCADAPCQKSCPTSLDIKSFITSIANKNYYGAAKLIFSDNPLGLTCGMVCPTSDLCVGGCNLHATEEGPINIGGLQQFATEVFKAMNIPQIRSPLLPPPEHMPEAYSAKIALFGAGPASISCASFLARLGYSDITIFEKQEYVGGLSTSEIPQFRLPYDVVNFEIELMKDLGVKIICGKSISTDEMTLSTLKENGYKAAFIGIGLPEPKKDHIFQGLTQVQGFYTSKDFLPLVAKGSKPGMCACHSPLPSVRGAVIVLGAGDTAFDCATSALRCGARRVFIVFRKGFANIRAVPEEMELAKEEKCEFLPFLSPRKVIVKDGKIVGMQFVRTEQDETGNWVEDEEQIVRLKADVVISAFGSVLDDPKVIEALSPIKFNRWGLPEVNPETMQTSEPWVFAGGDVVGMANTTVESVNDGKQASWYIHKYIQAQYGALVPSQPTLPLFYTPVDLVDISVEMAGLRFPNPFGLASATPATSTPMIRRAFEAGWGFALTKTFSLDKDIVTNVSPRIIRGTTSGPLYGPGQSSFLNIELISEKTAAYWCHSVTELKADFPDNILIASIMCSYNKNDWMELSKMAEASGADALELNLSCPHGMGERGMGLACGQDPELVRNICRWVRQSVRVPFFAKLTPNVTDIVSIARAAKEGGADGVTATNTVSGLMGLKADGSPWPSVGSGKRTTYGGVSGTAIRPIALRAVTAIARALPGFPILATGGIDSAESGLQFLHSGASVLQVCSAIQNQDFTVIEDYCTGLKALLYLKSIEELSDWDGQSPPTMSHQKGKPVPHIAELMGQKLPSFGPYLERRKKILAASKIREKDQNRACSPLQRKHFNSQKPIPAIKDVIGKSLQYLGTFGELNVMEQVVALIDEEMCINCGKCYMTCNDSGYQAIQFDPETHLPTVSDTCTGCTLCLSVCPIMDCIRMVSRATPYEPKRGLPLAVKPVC
The experiment is described as follows: DPD inhibitory action in vitro (enzyme reaction, tritium-labeled 5-FU as substrate). The class given is biochemical. As to the method:
The resulting product was diluted to concentrations of 1 mM, 100 μM, 10 μM, and 1 μM with a 10 mM potassium phosphate buffer solution (pH 6.0), thereby obtaining Test Liquids 1. The obtained Test Liquids 1 were separately added to the enzyme reaction solution described below to give final concentrations of 200 μM, 20 μM, 2 μM, and 0.2 μM. • (b) Test liquid preparation (2): As a DPD inhibitor, 5-chloro-2,4-dihydroxypyridine (CDHP; gimeracil) was dissolved to a concentration of 10 mM in a 10 mM potassium phosphate buffer solution (pH 6.0). The resulting product was diluted to concentrations of 1 mM, 100 μM, 10 μM, and 1 μM, thereby obtaining Test Liquids 2. The obtained Test Liquids 2 were separately added to the enzyme reaction solution to give final concentrations of 200 μM, 20 μM, 2 μM, and 0.2 μM. • (c) Test liquid preparation (3): As an OPRT inhibitor, citrazinic acid (Citra. A.) was dissolved to a concentration of 10 mM in 20 mM trishydroxyaminomethane-hydrochloric buffer solution (pH 8.0). Thereafter, the resulting product was diluted to concentrations of 1 mM, 100 μM, and 10 μM with a 10 mM potassium phosphate buffer solution, thereby obtaining Test Liquids (3). The obtained Test Liquids 3 were separately added to the enzyme reaction solution to give final concentrations of 200 μM, 20 μM, and 2 μM. • (d) Preparation of enzyme solution: The liver of an 8-week old SD rat was used as a DPD enzyme source, while human tumor cells that had been transplanted into a nude mouse and proliferated therein were used as an OPRT enzyme source. Specifically, immediately after a rat liver or successively-transplanted human tumor cells were extracted, a 50-mM tris-hydrochloric acid buffer solution (pH 8.0) containing 0.25 M saccharose, 5 mM magnesium chloride, and 1 mM dithreitol was added thereto to a concentration of 25% (w/v) and homogenized. Thereafter, ultracentrifugation was performed at 105,000 g for 60 minutes, and the obtained supernatant was used as a DPD enzyme solution or an OPRT enzyme solution. • (e) Enzyme reaction: A DPD enzyme reaction was carried out in accordance with the method of Tatsumi et al. (Gann, 78: 748-755 (1987)) using 5-FU labeled with tritium as a substrate. An OPRT enzyme reaction was carried out in accordance with the method of Shirasaka et al. (Cancer Res., 53: 4004-4009 (1993)) using 5-FU labeled with tritium as a substrate. Then, the activity of a control group (with no test compound) and test compound groups was measured. The percent inhibition of the test compound relative to DPD or OPRT was calculated using the following formula: [1-(the enzyme activity with the test compound/the enzyme activity of the control group)]×100(%).
The resulting product was diluted to concentrations of 1 mM, 100 μM, 10 μM, and 1 μM with a 10 mM potassium phosphate buffer solution (pH 6.0), thereby obtaining Test Liquids 1. The obtained Test Liquids 1 were separately added to the enzyme reaction solution described below to give final concentrations of 200 μM, 20 μM, 2 μM, and 0.2 μM. • (b) Preparation of enzyme solution: The liver of an 8-week old SD rat was used as a DPD enzyme source, while human tumor cells that had been transplanted into a nude mouse and proliferated therein were used as an OPRT enzyme source. Specifically, immediately after a rat liver or successively-transplanted human tumor cells were extracted, a 50-mM tris-hydrochloric acid buffer solution (pH 8.0) containing 0.25 M saccharose, 5 mM magnesium chloride, and 1 mM dithreitol was added thereto to a concentration of 25% (w/v) and homogenized. Thereafter, ultracentrifugation was performed at 105,000 g for 60 minutes, and the obtained supernatant was used as a DPD enzyme solution or an OPRT enzyme solution. • (c) Enzyme reaction: A DPD enzyme reaction was carried out in accordance with the method of Tatsumi et al. (Gann, 78: 748-755 (1987)) using 5-FU labeled with tritium as a substrate. […]

Like-named read-outs stand apart in the source and are kept apart here.

With `Oc1cc(O)c(Cl)cn1` [CDHP, 5-chloro-2,4-dihydroxypyridine, reference compound], the inhibition at 0.2 µM runs as follows: (0.2 μM, Table 2, read-out: DPD Inhibition (%)) 44.8%; (Conc. 0.2 μM, Table 1, read-out: DPD Inhibitory Activity: Inhibition) 40.8%. Besides, the inhibition at 2 µM runs as follows: (2 μM, Table 2, read-out: DPD Inhibition (%)) 85.1%; (Conc. 2 μM, Table 1, read-out: DPD Inhibitory Activity: Inhibition) 80.7%. Also, the “DPD Inhibitory Activity: Activity” value (Conc. 0.2 μM, Table 1) is 0.597 nmol/mL/min; the “DPD Inhibitory Activity: Activity” value (Conc. 2 μM, Table 1) came to 0.195 nmol/mL/min; the “DPD Inhibitory Activity: Activity” value (Conc. 20 μM, Table 1) came out at 0.074 nmol/mL/min; the “DPD Inhibitory Activity: Activity” value (Conc. 200 μM, Table 1) was found to be 0.106 nmol/mL/min. Where the note is “Conc. 20 μM, Table 1”, this compound displayed an inhibition at 20 µM of 92.7%. Under “Conc. 200 μM, Table 1”, the inhibition at 200 µM was found to be 89.5%.

Broadly, the inhibition is the share of the control response that was lost under treatment.
